From ChEMBL document CHEMBL4411263, “Isolation of Tryptanthrin and Reassessment of Evidence for Its Isobaric Isostere Wrightiadione in Plants of the Wrightia Genus” (J Nat Prod, 2019)
In brackets after ≈: the same amount, converted by molar mass.

How the values were obtained:
[1] = tested on: Mycobacterium tuberculosis; assay: Antitubercular activity against Mycobacterium tuberculosis H37Rv; type: functional
[2] = tested on: Mycobacterium tuberculosis; assay: Antitubercular activity against Mycobacterium tuberculosis H37Rv ATCC 27294 incubated for 1 week by MABA; type: functional; conditions: H37Rv ATCC 27294, 168 h
[3] = tested on: Vero; assay: Cytotoxicity against African green monkey Vero cells by CellTiter 96 aqueous nonradioactive cell proliferation assay; type: cell-based; conditions: Chlorocebus sabaeus

Compound: O=C1c2ccccc2-n2c1nc1ccccc1c2=O [TRYPTANTHRIN]
- MIC [1]: 1 µg/mL (≈ 4.03 µM)
- MIC90 [2]: 7.59 µg/mL (≈ 30.6 µM)
- IC50 [3]: > 100 µg/mL

Compound: CO[C@H]1/C=C/O[C@@]2(C)Oc3c(C)c(O)c4c(O)c(c(/C=N/N5CCN(C)CC5)c(O)c4c3C2=O)NC(=O)/C(C)=C\C=C\[C@H](C)[C@H](O)[C@@H](C)[C@@H](O)[C@@H](C)[C@H](OC(C)=O)[C@@H]1C [RIFAMPIN]
- MIC90 [2]: 0.05 µg/mL (≈ 0.0608 µM)
- IC50 [3]: 97.4 µg/mL (≈ 118 µM)
